Results: ChEMBL document CHEMBL3885881, “DrugMatrix”

Species on record: Rattus norvegicus
Assay: DrugMatrix - Regimen: Daily Repeat
Assay type: toxicity, organism-based, Sprague-Dawley
Design: regimen Daily Repeat, gender Male, age 6-8 weeks
Conditions: in vivo, po, route oral GAVAGE, vehicle 100 % WATER; for ABSOLUTE BASOPHIL / ABSOLUTE EOSINOPHIL / ABSOLUTE LYMPHOCYTE / ABSOLUTE MONOCYTE / ABSOLUTE SEGMENTED NEUTROPHIL / BASOPHIL / EOSINOPHIL / ERYTHROCYTE COUNT / HEMATOCRIT / HEMOGLOBIN / LEUKOCYTE COUNT / LYMPHOCYTE / MEAN CORPUSCULAR HEMOGLOBIN / MEAN CORPUSCULAR HEMOGLOBIN CONCENTRATION / MEAN CORPUSCULAR VOLUME / MONOCYTE / NEUTROPHIL / NUCLEATED RED BLOOD CELLS / PLATELET COUNT: tissue Blood; for ALANINE AMINOTRANSFERASE / ALKALINE PHOSPHATASE / ASPARTATE AMINOTRANSFERASE / BLOOD UREA NITROGEN / CARBON DIOXIDE / CHLORIDE / CHOLESTEROL / CREATINE PHOSPHOKINASE / CREATININE / GLUCOSE / LACTATE DEHYDROGENASE / LIPASE / PHOSPHORUS / POTASSIUM / SODIUM / TOTAL BILIRUBIN / TOTAL PROTEIN / URIC ACID: tissue Plasma
[1] = 0 mg/kg, 72 h, dose level Control, time 3 day
[2] = 0 mg/kg, 120 h, dose level Control, time 5 day
[3] = […], 72 h, dose 7.5 mg/Kg, dose level Low, time 3 day
[4] = […], 120 h, dose 7.5 mg/Kg, dose level Low, time 5 day

For `CNC1=Nc2ccc(Cl)cc2C(c2ccccc2)=[N+]([O-])C1` [CHLORDIAZEPOXIDE], the “ABSOLUTE BASOPHIL” value [1] was 0 CELLS/uL, the “ABSOLUTE EOSINOPHIL” value [1] was 40 CELLS/uL and the “ABSOLUTE LYMPHOCYTE” value [1] was 13599.5 CELLS/uL. For the same molecule, the “ABSOLUTE MONOCYTE” value [1] was 239.33 CELLS/uL, the “ABSOLUTE SEGMENTED NEUTROPHIL” value [1] was 1021.17 CELLS/uL and the BASOPHIL [1] was 0%. The EOSINOPHIL [1] was 0.33%, the “ERYTHROCYTE COUNT” value [1] was 5.71 x10E6/uL and the HEMATOCRIT [1] was 36.35%. The HEMOGLOBIN [1] was 14.05 G/DL, the “LEUKOCYTE COUNT” value [1] was 14.9 x10E3/uL and the LYMPHOCYTE [1] was 91%. The “MEAN CORPUSCULAR HEMOGLOBIN” value [1] was 24.62 pg, the “MEAN CORPUSCULAR HEMOGLOBIN CONCENTRATION” value [1] was 38.65 G/DL and the “MEAN CORPUSCULAR VOLUME” value [1] was 63.7 fL. For the same molecule, the MONOCYTE [1] was 1.5%, the NEUTROPHIL [1] was 7.17% and the “NUCLEATED RED BLOOD CELLS” value [1] was 0.33 /100WBC. For the same molecule, the “PLATELET COUNT” value [1] was 1225.5 x10E3/uL, the “ALANINE AMINOTRANSFERASE” value [1] was 48.5 u/L and the “ALKALINE PHOSPHATASE” value [1] was 390.83 u/L. The “ASPARTATE AMINOTRANSFERASE” value [1] was 89 u/L, the “BLOOD UREA NITROGEN” value [1] was 14.83 mg/dL and the “CARBON DIOXIDE” value [1] was 24.83 mmol/L. The CHLORIDE [1] was 100.83 MEQ/L, the CHOLESTEROL [1] was 72.5 mg/dL and the “CREATINE PHOSPHOKINASE” value [1] was 503 u/L. For the same molecule, the CREATININE [1] was 0.2 mg/dL, the GLUCOSE [1] was 163 mg/dL and the “LACTATE DEHYDROGENASE” value [1] was 316.83 u/L. For the same molecule, the LIPASE [1] was 9.83 u/L, the PHOSPHORUS [1] was 11.57 mg/dL and the POTASSIUM [1] was 6.16 MEQ/L. For the same molecule, the SODIUM [1] was 142.62 MEQ/L, the “TOTAL BILIRUBIN” value [1] was 0.2 mg/dL and the “TOTAL PROTEIN” value [1] was 5.8 G/DL. For the same molecule, the “URIC ACID” value [1] was 1.65 mg/dL, the “ABSOLUTE BASOPHIL” value [2] was 0 CELLS/uL and the “ABSOLUTE EOSINOPHIL” value [2] was 21 CELLS/uL. For the same molecule, the “ABSOLUTE LYMPHOCYTE” value [2] was 14288.5 CELLS/uL, the “ABSOLUTE MONOCYTE” value [2] was 205.33 CELLS/uL and the “ABSOLUTE SEGMENTED NEUTROPHIL” value [2] was 968.5 CELLS/uL. The BASOPHIL [2] was 0%, the EOSINOPHIL [2] was 0.17% and the “ERYTHROCYTE COUNT” value [2] was 5.83 x10E6/uL. For the same molecule, the HEMATOCRIT [2] was 36.53%, the HEMOGLOBIN [2] was 14.4 G/DL and the “LEUKOCYTE COUNT” value [2] was 15.48 x10E3/uL. The LYMPHOCYTE [2] was 92%, the “MEAN CORPUSCULAR HEMOGLOBIN” value [2] was 24.72 pg and the “MEAN CORPUSCULAR HEMOGLOBIN CONCENTRATION” value [2] was 39.43 G/DL. For the same molecule, the “MEAN CORPUSCULAR VOLUME” value [2] was 62.68 fL, the MONOCYTE [2] was 1.33% and the NEUTROPHIL [2] was 6.5%. For the same molecule, the “NUCLEATED RED BLOOD CELLS” value [2] was 0.17 /100WBC, the “PLATELET COUNT” value [2] was 1280.5 x10E3/uL and the “ALANINE AMINOTRANSFERASE” value [2] was 50 u/L. The “ALKALINE PHOSPHATASE” value [2] was 380.17 u/L, the “ASPARTATE AMINOTRANSFERASE” value [2] was 82.67 u/L and the “BLOOD UREA NITROGEN” value [2] was 15.33 mg/dL. The “CARBON DIOXIDE” value [2] was 27.17 mmol/L, the CHLORIDE [2] was 100.33 MEQ/L and the CHOLESTEROL [2] was 60.67 mg/dL. For the same molecule, the “CREATINE PHOSPHOKINASE” value [2] was 441.5 u/L, the CREATININE [2] was 0.16 mg/dL and the GLUCOSE [2] was 146 mg/dL. For the same molecule, the “LACTATE DEHYDROGENASE” value [2] was 189.33 u/L, the LIPASE [2] was 9.17 u/L and the PHOSPHORUS [2] was 11.67 mg/dL. For the same molecule, the POTASSIUM [2] was 6.86 MEQ/L, the SODIUM [2] was 142.33 MEQ/L and the “TOTAL BILIRUBIN” value [2] was 0.2 mg/dL. For the same molecule, the “TOTAL PROTEIN” value [2] was 6.12 G/DL, the “URIC ACID” value [2] was 1.82 mg/dL and the “ABSOLUTE BASOPHIL” value [3] was 0 CELLS/uL. For the same molecule, the “ABSOLUTE EOSINOPHIL” value [3] was 54 CELLS/uL, the “ABSOLUTE LYMPHOCYTE” value [3] was 12748.67 CELLS/uL and the “ABSOLUTE MONOCYTE” value [3] was 258 CELLS/uL. The “ABSOLUTE SEGMENTED NEUTROPHIL” value [3] was 2072.67 CELLS/uL, the BASOPHIL [3] was 0% and the EOSINOPHIL [3] was 0.33%. The “ERYTHROCYTE COUNT” value [3] was 5.45 x10E6/uL, the HEMATOCRIT [3] was 34.1% and the HEMOGLOBIN [3] was 13.23 G/DL. The “LEUKOCYTE COUNT” value [3] was 15.13 x10E3/uL, the LYMPHOCYTE [3] was 84.33% and the “MEAN CORPUSCULAR HEMOGLOBIN” value [3] was 24.3 pg. For the same molecule, the “MEAN CORPUSCULAR HEMOGLOBIN CONCENTRATION” value [3] was 38.8 G/DL, the “MEAN CORPUSCULAR VOLUME” value [3] was 62.57 fL and the MONOCYTE [3] was 1.67%. For the same molecule, the NEUTROPHIL [3] was 13.67%, the “NUCLEATED RED BLOOD CELLS” value [3] was 0.33 /100WBC and the “PLATELET COUNT” value [3] was 1319 x10E3/uL. For the same molecule, the “ALANINE AMINOTRANSFERASE” value [3] was 50.33 u/L, the “ALKALINE PHOSPHATASE” value [3] was 379.67 u/L and the “ASPARTATE AMINOTRANSFERASE” value [3] was 95 u/L. For the same molecule, the “BLOOD UREA NITROGEN” value [3] was 15.67 mg/dL, the “CARBON DIOXIDE” value [3] was 26 mmol/L and the CHLORIDE [3] was 101 MEQ/L. For the same molecule, the CHOLESTEROL [3] was 60.33 mg/dL, the “CREATINE PHOSPHOKINASE” value [3] was 360.33 u/L and the CREATININE [3] was 0.17 mg/dL. The GLUCOSE [3] was 162.33 mg/dL, the “LACTATE DEHYDROGENASE” value [3] was 326.33 u/L and the LIPASE [3] was 8.67 u/L. For the same molecule, the PHOSPHORUS [3] was 12.63 mg/dL, the POTASSIUM [3] was 7.24 MEQ/L and the SODIUM [3] was 142.77 MEQ/L. For the same molecule, the “TOTAL BILIRUBIN” value [3] was 0.27 mg/dL, the “TOTAL PROTEIN” value [3] was 5.87 G/DL and the “URIC ACID” value [3] was 2 mg/dL. The “ABSOLUTE BASOPHIL” value [4] was 0 CELLS/uL, the “ABSOLUTE EOSINOPHIL” value [4] was 0 CELLS/uL and the “ABSOLUTE LYMPHOCYTE” value [4] was 13599 CELLS/uL. The “ABSOLUTE MONOCYTE” value [4] was 187.67 CELLS/uL, the “ABSOLUTE SEGMENTED NEUTROPHIL” value [4] was 813.33 CELLS/uL and the BASOPHIL [4] was 0%. The EOSINOPHIL [4] was 0%, the “ERYTHROCYTE COUNT” value [4] was 5.46 x10E6/uL and the HEMATOCRIT [4] was 34.73%. The HEMOGLOBIN [4] was 13.83 G/DL, the “LEUKOCYTE COUNT” value [4] was 14.6 x10E3/uL and the LYMPHOCYTE [4] was 93%. The “MEAN CORPUSCULAR HEMOGLOBIN” value [4] was 25.37 pg, the “MEAN CORPUSCULAR HEMOGLOBIN CONCENTRATION” value [4] was 39.83 G/DL and the “MEAN CORPUSCULAR VOLUME” value [4] was 63.7 fL. For the same molecule, the MONOCYTE [4] was 1.33%, the NEUTROPHIL [4] was 5.67% and the “NUCLEATED RED BLOOD CELLS” value [4] was 0 /100WBC. The “PLATELET COUNT” value [4] was 1349.33 x10E3/uL, the “ALKALINE PHOSPHATASE” value [4] was 303.33 u/L and the “ASPARTATE AMINOTRANSFERASE” value [4] was 68.67 u/L. The “BLOOD UREA NITROGEN” value [4] was 17.67 mg/dL, the “CARBON DIOXIDE” value [4] was 27.33 mmol/L and the CHLORIDE [4] was 101.33 MEQ/L. For the same molecule, the CHOLESTEROL [4] was 63.67 mg/dL, the “CREATINE PHOSPHOKINASE” value [4] was 199.33 u/L and the CREATININE [4] was 0.15 mg/dL. The GLUCOSE [4] was 159.33 mg/dL, the “LACTATE DEHYDROGENASE” value [4] was 110 u/L and the LIPASE [4] was 8.67 u/L. It also gave a PHOSPHORUS [4] of 11.87 mg/dL, a POTASSIUM [4] of 6.75 MEQ/L and an SODIUM [4] of 144.03 MEQ/L. For the same molecule, the “TOTAL BILIRUBIN” value [4] was 0.23 mg/dL, the “TOTAL PROTEIN” value [4] was 5.83 G/DL and the “URIC ACID” value [4] was 1.47 mg/dL.
